{"source": "paper PMC11536310", "about": "“Evaluation of STK17B as a cancer immunotherapy target utilizing highly potent and selective small molecule inhibitors” (Frontiers in Immunology, 2024)", "test_system": "phospho-myosin light chain 2 (pMLC2) S19", "experiment": "pMLC2 flow cytometry assay in mouse whole blood in vitro", "format": "cell-based", "conditions": "ROCK1/2 inhibitor added to top concentration (30 µM) of BLU4565"}
{"smiles": "CC1=C(C(=O)Nc2cc3cn[nH]c3cc2F)C(c2ccc(C(F)(F)F)cc2)CC(=O)N1", "note": "(stereo not shown) [GSK429286A]", "values": [{"measurement": "further reduction of pMLC2 median fluorescence intensity signal compared with BLU4565 alone", "value": "Minimal further reduction"}]}
